Test results reported in paper PMC9218685, “Legume Plant Peptides as Sources of Novel Antimicrobial Molecules Against Human Pathogens” (Frontiers in Molecular Biosciences, 2022).
In brackets after ≈: the same amount, converted by molar mass. Entries after “also recorded” stand apart in the source; their conditions may differ. Read-outs that look alike come from different tables or passages of the source. Ends that are not written are not given here. Peptide text beside a SMILES is read from it.

Columns and labels:
[1] = tested on: Candida albicans W01 strain; assay: microbe, parasite or virus in culture; format: cell-based; settings: read-out: MFC, minimal fungicidal concentration against C. albicans
Excerpt: The following pathogenic bacterial strains were used: The Gram-positive Enterococcus faecalis (ATCC 29212), Staphylococcus aureus (HNCMO112011), Listeria monocytogenes (ATCC 19111) and the Gram-negative Pseudomonas aeruginosa (ATCC 27853), Escherichia coli (ATCC 8739), Salmonella enterica (ATCC 13076), Klebsiella pneumoniae (NCTC 13440), Acinetobacter baumannii (ATCC 17978) obtained from the ATCC (United States) and NCTC (National Collection of Type Cultures–England). For the antifungal experiment the Candida albicans W01 strain ([Ördögh et al., 2014]) was used. Antimicrobial activities of peptides against ∼10^7 log phase bacteria were tested in Potassium-Phosphate Buffer (PPB, pH 7.4) as described by [Jenei et al. (2020)] while anti-Candida assays were done according to [Szerencsés et al. (2021)]. The two-fold dilution series of peptides ranged from 25 μM to 0.125 μM, while that of the antibiotics ampicillin (Merck) and miconazole (Duchefa Biochemie) from […] to 0.1 μM. The lowest concentration of the antimicrobial agents, which completely eliminated viable bacteria or C. albicans were considered as the minimal bactericidal concentration (MBC) and minimal fungicidal concentration (MFC).

C. albicans = assay: Scanning electron microscopy of cell morphology; format: cell-based, Candida albicans; settings: 30 min treatment, peptide 1.6, 3.125 or 25 µM as in Figure 4 legend
Protocol: (§1) A. baumannii and C. albicans were grown and treated the same way as for the membrane permeability assay. Cells were then fixed with 2.5% (v/v) glutaraldehyde in phosphate buffered saline (PBS, pH 7.4). 5 μl of the above bacterial and yeast suspensions were spotted on a silicon disk coated with 0.01% Poly-L-Lysine. The filters were washed twice with PBS and gradually dehydrated with ethanol series (30, 50, 70, 80%, and three times 100% ethanol, each for minimum 30 min). The samples were dried with a critical point dryer (K850: Quorum Technologies Ltd.), followed by 12 nm gold coating and observed under a JEOL JSM-7100F/LV scanning electron microscope.

[2] = tested on: Acinetobacter baumannii (ATCC 17978); assay: microbe, parasite or virus in culture; format: cell-based; settings: for MBC: read-out: MBC, minimal bactericidal concentration against A. baumannii
How it was run: (§2)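 MBC read as lowest peptide concentration giving no viable bacteria; ~10^7 log-phase cells, PPB pH 7.4, 3 h treatment, 2-fold dilutions from 25 µM.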

[3] = tested on: Lambda DNA/HindIII marker; assay: Gel retardation assay (DNA aggregation); format: binding; settings: 100 ng DNA, 5 or 10 µM peptide in water, 30 min at room temperature, 1% agarose gel
Protocol: Interactions of peptides with DNA was visualized with gel retardation assay ([Hsu et al., 2005]). 100 ng Lambda DNA/HindIII marker (ThermoFisher Scientific) was incubated with 0, 5 or 10 µM synthetic NCRs or NCR derivatives in water for 30 min at room temperature and then loaded into 1% agarose gel. Electrophoresis of DNA fragments separated the mobile HindIII-digested DNA fragments while the aggregated DNA remained in the loading wells.
FIGURE 6 Aggregation of DNA by NCR peptides. Lambda HindIII digested DNA was incubated without (0) or with NCR peptides at 5 or 10 μM concentration.

A. baumannii = assay: Scanning electron microscopy of cell morphology; format: cell-based, Acinetobacter baumannii; settings: 30 min treatment, peptide 1.6 or 3.125 µM as in Figure 3 legend
Protocol: as §1
FIGURE 3 Viability, membrane permeability and morphology of A. baumannii cells after NCR treatment (A–L) SYTO9/PI staining observed with confocal microscope, (M–X) Cell morphology observed with SEM. (A,M) untreated control, (B,N) CaNCR13, 3.125 µM, (C,O) CaNCR63, 3.125 µM, (D,P) CaNCR63_1-20, 3.125 µM, (E,Q) CaNCR63_15-34, 3.125 µM, (F,R) MsNCR443, 3.125 µM, (G,S) MsNCR463_16-35, 1.6 µM, (H,T) MsNCR463_17-30, 3.125 µM, (I,U) PsNCR349, 1.6 µM, (J,V) PsNCR349_26-50, 3.125 µM, (K,W) PsNCR349_31-50, 3.125 µM, (L,X) PsNCR352, 1.6 µM.

[4] = peptides carrying a StrepII tag at their C-terminus, 25 µM, 10% Fetal Bovine Serum, 37°C, 18 h; StrepTactin-HRP Western blot
Protocol: Peptides were incubated in 10% Fetal Bovine Serum at 37°C for 18 h. Full length NCRs were used at 25 μM, while short derivatives at 50 μM. The serum proteins and peptides were separated by sodium dodecyl sulfate-polyacrylamide gel electrophoresis (SDS-PAGE, 12% bis-tris gel, MES buffer pH 7.3) and visualized by Coomassie blue staining. NCRs with StrepII tag at their C-terminus were also detected by Western blot analysis using Precision Protein StrepTactin-HRP conjugate antibody (BioRad) and Clarity Western ECL (BioRad) for chemiluminescence detection according to the supplier.
FIGURE S3 Serum stability assay. Full length NCRs, StrepII-tagged NCR peptides (25 µM) and shorter NCR derivatives (50 µM) were incubated in water or in 10% Fetal Bovine Serum (FBS) for 18 hours at 37°C. Serum proteins and the peptides were separated by SDS-Page and visualized by Coomassie blue staining or in the case of StrepII-tagged NCRs also with Western blot. […]

[5] = tested on: Pseudomonas aeruginosa (ATCC 27853); format: cell-based; settings: ATCC 27853, 3 h
How it was run: as §2

[6] = tested on: Enterococcus faecalis (ATCC 29212); format: cell-based
How it was run: as §2

[7] = tested on: Escherichia coli (ATCC 8739); format: cell-based; settings: ATCC 8739, 3 h
How it was run: as §2

[8] = tested on: Salmonella enterica (ATCC 13076); format: cell-based; settings: ATCC 13076, 3 h
How it was run: as §2

[9] = tested on: Listeria monocytogenes (ATCC 19111); format: cell-based; settings: ATCC 19111, 3 h
How it was run: as §2

[10] = tested on: E. coli, S. enteritidis, P. aeruginosa, L. monocytogenes, S. aureus, E. faecalis, K. pneumoniae and A. baumannii; assay: Antimicrobial activity assay, spectrum over the eight tested pathogenic bacteria; format: cell-based; settings: 3 h treatment of ~10^7 log phase bacteria, peptides 25 to 0.8 µM; active = MBC ≤25 µM
How it was run: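 MBC taken as the lowest peptide concentration leaving no viable bacteria after 3 h exposure of ~10^7 log-phase cells. Peptides tested by 2-fold serial dilution, 25 µM down to 0.8 µM, in PPB (pH 7.4). Gram-positive and Gram-negative reference strains from ATCC, NCTC and HNCMO collections.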

[11] = tested on: Staphylococcus aureus (HNCMO112011); format: cell-based; settings: HNCMO112011, 3 h
How it was run: as §2

[12] = tested on: Klebsiella pneumoniae (NCTC 13440); format: cell-based; settings: NCTC 13440, 3 h
How it was run: as §2

[13] = C. albicans W01, two-fold dilution series, lowest concentration completely eliminating viable C. albicans
[14] = ~10^7 log phase bacteria, Potassium-Phosphate Buffer pH 7.4, 3 h treatment, two-fold dilution series, lowest concentration completely eliminating viable bacteria

Row | Compound | MFC [1, 13] | MFC ([1]; W01 strain) | Morphology of C. albicans cells by SEM (C. albicans) | MBC [2, 14] | Aggregation of HindIII-digested λ DNA (DNA retained in loading wells) [3] | Morphology of A. baumannii cells by SEM (A. baumannii) | Stability in serum by Western blot [4] | MBC Pseudomonas aeruginosa [5] | Ability to kill E. faecalis ([6]; 3 h, ~10^7 log phase bacteria, peptides ≤25 µM) | MBC Enterococcus faecalis ([6]; ATCC 29212, 3 h) | MBC Escherichia coli [7] | MBC Salmonella enterica [8] | MBC Listeria monocytogenes [9] | Antibacterial spectrum over the eight tested bacterial strains [10] | MBC ([2]; ATCC 17978, 3 h, pH 7.4) | MBC Acinetobacter baumannii ([2]; ATCC 17978, 3 h) | MBC Staphylococcus aureus [11] | MBC Klebsiella pneumoniae [12]
1 | CC(C)[C@H](NC(=O)CNC(=O)[C@H](CCCNC(=N)N)NC(=O)[C@H](CCCCN)NC(=O)[C@@H]1CCCN1C(=O)[C@H](CCCCN)NC(=O)[C@@H](N)CS)C(=O)N[C@@H](CC(N)=O)C(=O)N[C@@H](Cc1ccccc1)C(=O)N[C@@H](CCCNC(=N)N)C(=O)N[C@@H](CS)C(=O)N[C@@H](CCCNC(=N)N)C(=O)N[C@@H](CCCCN)C(=O)NCC(=O)N[C@@H](CCCCN)C(=O)N[C@@H](CS)C(=O)N[C@@H](Cc1ccccc1)C(=O)N1CCC[C@H]1C(=O)N[C@H](C(=O)N[C@@H](CCCNC(=N)N)C(N)=O)C(C)C [MsNCR463_16-35] (H-CKPKRGVNFRCRKGKCFPVR-NH2; N-terminus assumed) | 3.1 µM (≈ 7.37 µg/mL) | 3.125 µM (≈ 7.43 µg/mL) | Flattening of cells | 1.6 µM (≈ 3.81 µg/mL) | DNA remained in the wells | budding of vesicles; also recorded: Filament-like structures | – | – | – | – | – | – | – | – | – | – | – | –
2 | ITISNSSFGRIVYWNCKTDKDCKQHRGFNFRCRSGNCIPIRR-OH (cysteines drawn unpaired) [NCR183] | – | – | – | – | – | – | stable in the presence of FBS | 6.25 µM | able to kill | 25 µM | 6.25 µM | 25 µM | 6.25 µM | effective against five or four strains | – | – | – | –
3 | CC[C@H](C)[C@H](NC(=O)[C@H](CCCCN)NC(=O)[C@H](CO)NC(=O)[C@H](CCCNC(=N)N)NC(=O)[C@@H]1CCCN1C(=O)[C@H](CS)NC(=O)[C@H](CCCNC(=N)N)NC(=O)[C@H](Cc1ccc(O)cc1)NC(=O)[C@H](CCCCN)NC(=O)[C@H](CCCCN)NC(=O)[C@H](CS)NC(=O)[C@H](CC(=O)O)NC(=O)[C@@H](NC(=O)[C@H](CCCNC(=N)N)NC(=O)[C@@H](NC(=O)[C@H](CCCCN)NC(=O)[C@H](CS)NC(=O)[C@@H](NC(=O)[C@H](CCSC)NC(=O)[C@@H](N)CCCCN)[C@@H](C)CC)[C@@H](C)O)C(C)C)C(N)=O [CaNCR63_1-20] (H-KMICKTRVDCKKYRCPRSKI-NH2; N-terminus assumed) | – | 25 µM (≈ 61.4 µg/mL) | most similar to the control | – | less efficient than either the full-length peptide or the C-terminal CaNCR63_15-34 | rough cell surface, lysis and flattening of the cells | – | – | – | – | – | – | – | – | 6.25 µM (≈ 15.4 µg/mL) | – | – | –
4 | YNLKYCTNDKDCPTMMCFPPDVSKCVWKTCYCVQKHKKKLKKKKKLTFNM-OH (cysteines drawn unpaired) [PsNCR349] | 3.125 µM | – | Flattening of cells | – | DNA remained in the wells | Only dead cells were visible | – | – | – | – | – | – | – | broad-spectrum activity | – | – | – | –
5 | CC[C@H](C)[C@H](NC(=O)[C@H](CS)NC(=O)[C@H](CCCCN)NC(=O)[C@@H](NC(=O)[C@@H](NC(=O)[C@H](Cc1ccccc1)NC(=O)[C@H](CCCCN)NC(=O)[C@H](CO)NC(=O)[C@H](CO)NC(=O)[C@@H](NC(=O)[C@H](CC(C)C)NC(=O)[C@H](CCCCN)NC(=O)[C@@H]1CCCN1C(=O)[C@H](CS)NC(=O)[C@H](CC(=O)O)NC(=O)[C@H](C)NC(=O)[C@@H](NC(=O)[C@@H](NC(=O)[C@H](CCCNC(=N)N)NC(=O)[C@H](CS)NC(=O)[C@H](CCC(=O)O)NC(=O)[C@@H](NC(=O)[C@H](CO)NC(=O)[C@@H](N)CCC(=O)O)[C@@H](C)CC)[C@@H](C)O)C(C)C)[C@@H](C)CC)C(C)C)[C@@H](C)CC)C(=O)N[C@@H](CCCCN)C(=O)N[C@@H](CCCCN)C(=O)N[C@@H](CCCNC(=N)N)C(=O)N[C@@H](CS)C(=O)N[C@H](C(=O)N[C@@H](C)C(=O)N[C@@H](CCC(N)=O)C(=O)N[C@@H](Cc1ccccc1)C(=O)N[C@@H](Cc1ccccc1)C(=O)N[C@@H](CCCCN)C(=O)O)C(C)C [MsNCR443] (H-ESIECRTVADCPKLISSKFVIKCIKKRCVAQFFK-OH; N-terminus assumed) | – | 6.25 µM (≈ 24.5 µg/mL) | aggregation of shrunken cells in a spider net like matrix | 6.25 µM (≈ 24.5 µg/mL) | did not | Filament-like structures | – | 6.25 µM (≈ 24.5 µg/mL) | – | – | 1.6 µM (≈ 6.27 µg/mL) | 25 µM (≈ 98 µg/mL) | 12.5 µM (≈ 49 µg/mL) | broad-spectrum activity | – | 1.6 µM (≈ 6.27 µg/mL) | 12.5 µM (≈ 49 µg/mL) | 12.5 µM (≈ 49 µg/mL)
